Test results published in ChEMBL document CHEMBL4229496, “Discovery of small molecule inhibitors of adenovirus by disrupting E3-19K/HLA-A2 interactions” (Bioorg Med Chem Lett, 2018).
Counter-ions that a name gives are not always drawn.

target: HLA class I histocompatibility antigen, A alpha chain (Homo sapiens, UniProt P04439, D140Y/D185E/D98H/E176V/E277Q/G131W/G231S/I119V/I121R/I166T/I218V/L300P/L318F/N151K/N90K/P208A/P217A/Q86G/Q94H/R138H/R169H/T345S); assay: Binding affinity to human biotinylated HLA-A2 by surface plasmon resonance assay

Structure (SMILES)	Kd
O=C(CCCN1CCC(O)(c2ccc(Cl)cc2)CC1)c1ccc(F)cc1 [HALOPERIDOL]	< 10 µM
COc1cc2nc(N3CCN(C(=O)C4COc5ccccc5O4)CC3)nc(N)c2cc1OC (stereo unspecified) [DOXAZOSIN MESYLATE]	15.7 µM
O=C(CCCN1CCC2(CC1)C(=O)NCN2c1ccccc1)c1ccc(F)cc1 [SPIPERONE]	2.5 to 75 µM
COc1ccc(CCN2CCC(Nc3nc4ccccc4n3Cc3ccc(F)cc3)CC2)cc1 [ASTEMIZOLE]	2.5 to 75 µM
O=C(c1ccc(OCCN2CCCCC2)cc1)c1c(-c2ccc(O)cc2)sc2cc(O)ccc12 [RALOXIFENE HYDROCHLORIDE]	22 µM
O=c1n(CCCN2CCN(c3cccc(Cl)c3)CC2)nc2ccccn12 [TRAZODONE HYDROCHLORIDE]	2.5 µM
